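Five concentrations, 48 hours, 96-well plates. The concentration for full growth arrest is given as TGI.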 Bounds are passed on as bounds.

Among the test systems are HS 578T breast; SF-268 CNS; UACC-257 melanoma; SK-MEL-5 melanoma; SNB-19 CNS; M14 melanoma; NCI-H226 lung; MALME-3M melanoma; NCI-H23 lung; CAKI-1 renal; MDA-MB-435; HL-60(TB) leukemia; SK-MEL-28 melanoma; UACC-62 melanoma; OVCAR-3 ovarian; PC-3 prostate.
What all share (test): DTP human tumour cell line panel, 48 h

As for `O=C1NC(=S)NC1C(Cc1ccccc1)c1ccco1` (configuration not stated), the concentration for total growth inhibition (TGI) in the test with HS 578T breast, with SF-268 CNS, with UACC-257 melanoma, in the test on SK-MEL-5 melanoma, with SNB-19 CNS and in the test with M14 melanoma was above 100 µM each time. The TGI in the test with NCI-H226 lung, in the test with MALME-3M melanoma, in the test on NCI-H23 lung, in the test with CAKI-1 renal, with MDA-MB-435 and in the test with HL-60(TB) leukemia was above 100 µM throughout. For the same compound, the TGI – broadly, the concentration giving total growth inhibition – in the test on SK-MEL-28 melanoma was above 100 µM.
For the compound `COc1ccc(-c2nc(SCC(=O)N/N=C/c3ccc([N+](=O)[O-])cc3)[nH]c2-c2ccc(OC)cc2)cc1`, the TGI with HS 578T breast was 76.3 µM; with UACC-62 melanoma, 20.5 µM; with SF-268 CNS, above 100 µM; in the test with UACC-257 melanoma, 49.4 µM; with SK-MEL-5 melanoma, 19.9 µM; in the test with SNB-19 CNS, above 100 µM. In addition, the TGI is 32.3 µM with M14 melanoma; above 64.5 µM with OVCAR-3 ovarian; 50.8 µM in the test on MALME-3M melanoma; above 100 µM with PC-3 prostate; 85.6 µM in the test on NCI-H23 lung; above 75.6 µM in the test with CAKI-1 renal. The TGI was 12.2 µM in the test with MDA-MB-435, 24.7 µM in the test with HL-60(TB) leukemia and above 72 µM in the test with SK-MEL-28 melanoma.
For the compound `COc1cc(/C=C2\N=C(c3ccccc3)N(c3ccc4c(c3)Sc3cc(N5C(=O)/C(=C/c6cc(OC)c(OC)c(OC)c6)N=C5c5ccccc5)ccc3N4)C2=O)cc(OC)c1OC`, the TGI was found to be 88.1 µM with HS 578T breast; 31.4 µM with UACC-62 melanoma; 37.5 µM in the test on SF-268 CNS; 31.3 µM with UACC-257 melanoma; 30.1 µM in the test with SK-MEL-5 melanoma; 39.8 µM with SNB-19 CNS. In addition, the TGI in the test on M14 melanoma was 80.8 µM; in the test on OVCAR-3 ovarian, 40.7 µM; in the test with MALME-3M melanoma, 41.1 µM; with PC-3 prostate, 38.3 µM; with NCI-H23 lung, 40.3 µM; in the test on CAKI-1 renal, 37.1 µM. Further, the TGI was 33.6 µM in the test with MDA-MB-435, 65.3 µM with HL-60(TB) leukemia and above 100 µM with SK-MEL-28 melanoma.
For `N=C(N)SCCSC(=N)N`, the TGI with HS 578T breast, in the test on UACC-62 melanoma, with SF-268 CNS, in the test with UACC-257 melanoma, with SK-MEL-5 melanoma and with SNB-19 CNS was above 100 µM each time. Also, the TGI in the test with M14 melanoma, with OVCAR-3 ovarian, with NCI-H226 lung, in the test on MALME-3M melanoma, in the test on PC-3 prostate and in the test on NCI-H23 lung was above 100 µM each time. The TGI in the test on CAKI-1 renal, with MDA-MB-435 and in the test with SK-MEL-28 melanoma was above 100 µM each time.
Regarding `C/C(=N/NC(=S)Nc1ccccc1C)c1ccccn1`, the concentration for total growth inhibition (TGI) is 65.3 µM in the test with HS 578T breast; 5.99 µM in the test on UACC-62 melanoma; 30.9 µM in the test on SF-268 CNS; 1.88 µM in the test with UACC-257 melanoma; 2.31 µM in the test with SK-MEL-5 melanoma; 54.8 µM in the test with SNB-19 CNS. Further, the TGI in the test with M14 melanoma stood at 5.7 µM; in the test with OVCAR-3 ovarian, 9.47 µM; in the test with NCI-H226 lung, 2.47 µM; in the test with MALME-3M melanoma, 15.9 µM; with PC-3 prostate, 19.5 µM; with NCI-H23 lung, 27.2 µM. Besides, the concentration for total growth inhibition (TGI) in the test on CAKI-1 renal came to 19.5 µM; in the test on MDA-MB-435, 15.5 µM; with SK-MEL-28 melanoma, 23.1 µM.
For `CC1NC(=O)c2c(-c3ccccc3)nn(-c3ccccc3)c2NC1=O` (configuration not stated), the TGI in the test on HS 578T breast, in the test on UACC-62 melanoma, in the test with SF-268 CNS, in the test on UACC-257 melanoma, in the test with SK-MEL-5 melanoma and in the test on SNB-19 CNS was above 100 µM in each case. In addition, the concentration for total growth inhibition (TGI) in the test on M14 melanoma, with OVCAR-3 ovarian, in the test on NCI-H226 lung, with MALME-3M melanoma, in the test on PC-3 prostate and in the test on NCI-H23 lung was above 100 µM in each case. Also, the TGI in the test with CAKI-1 renal, in the test on MDA-MB-435 and with SK-MEL-28 melanoma was above 100 µM throughout.
As to `CC1(C)OC[C@@H]([C@H](C=O)OCc2ccccc2)O1`, the TGI in the test on HS 578T breast, in the test on UACC-62 melanoma, in the test with SF-268 CNS, with UACC-257 melanoma, in the test with SK-MEL-5 melanoma and in the test with SNB-19 CNS was above 100 µM each time. The TGI with M14 melanoma, with OVCAR-3 ovarian, with NCI-H226 lung, with MALME-3M melanoma, in the test with PC-3 prostate and in the test on NCI-H23 lung was above 100 µM in each case. For the same compound, the TGI in the test with MDA-MB-435 and in the test with SK-MEL-28 melanoma was above 100 µM each time.
`COc1cc(Br)cc2c1O[C@H]1C(=O)CC3CC21CCN3C` (some centres not stated): the TGI with HS 578T breast, with UACC-62 melanoma, in the test on SF-268 CNS, in the test with UACC-257 melanoma, in the test with SK-MEL-5 melanoma and in the test on SNB-19 CNS was above 100 µM throughout. In addition, the TGI is above 100 µM in the test with M14 melanoma; above 100 µM with OVCAR-3 ovarian; above 100 µM in the test with MALME-3M melanoma; above 100 µM in the test on PC-3 prostate; 68.2 µM in the test with NCI-H23 lung; above 100 µM in the test on CAKI-1 renal. The results for the TGI in the test on MDA-MB-435, in the test with HL-60(TB) leukemia and with SK-MEL-28 melanoma were above 100 µM, 42.7 µM and above 100 µM, respectively.
For the compound `COc1ccccc1NC(=S)NNC(=O)c1cc(-c2ccccc2)nc2ccccc12`, the TGI in the test with HS 578T breast is 50.2 µM; with UACC-62 melanoma, 23.2 µM; in the test on SF-268 CNS it was 74.8 µM; in the test with UACC-257 melanoma, 57.8 µM; with SK-MEL-5 melanoma it was 19.8 µM; with SNB-19 CNS, above 100 µM. Also, the TGI in the test on M14 melanoma was 26.1 µM; with OVCAR-3 ovarian, 18.2 µM; with NCI-H226 lung, 51.9 µM; in the test on MALME-3M melanoma it was 28.9 µM; in the test on PC-3 prostate it was 49.3 µM; with NCI-H23 lung it was 32.3 µM. In addition, the TGI in the test on CAKI-1 renal came out at 39.5 µM; in the test on MDA-MB-435, 18.5 µM; in the test on SK-MEL-28 melanoma it was 62 µM.
With `Oc1c(Nc2ccccc2)cc2c3c1N=NC=3CCN=2`, the TGI in the test with HS 578T breast is above 100 µM; with UACC-62 melanoma it was 49.2 µM; in the test with SF-268 CNS, above 100 µM; with SK-MEL-5 melanoma, 33.1 µM; in the test with SNB-19 CNS it was above 100 µM; in the test with M14 melanoma, above 100 µM. For the same compound, the TGI in the test on OVCAR-3 ovarian is above 100 µM; in the test on MALME-3M melanoma it was 29.1 µM; in the test on PC-3 prostate, above 100 µM; in the test on NCI-H23 lung, above 100 µM; with CAKI-1 renal, above 100 µM; in the test with MDA-MB-435, 31 µM. Also, the figures for the TGI in the test with HL-60(TB) leukemia and in the test on SK-MEL-28 melanoma were 53.2 µM and above 100 µM, respectively.
Consider `CNc1cccc(-c2cc(=O)c3cc4c(cc3[nH]2)OCO4)c1`, for which the TGI in the test with HS 578T breast is 8.96 µM; with UACC-62 melanoma, above 100 µM; in the test on SF-268 CNS, above 100 µM; with UACC-257 melanoma, above 100 µM; with SK-MEL-5 melanoma, 6.92 µM; with SNB-19 CNS, above 100 µM. Further, the TGI is above 100 µM in the test on M14 melanoma; 8.71 µM in the test on NCI-H226 lung; above 100 µM in the test on MALME-3M melanoma; above 100 µM with PC-3 prostate; 7.28 µM with NCI-H23 lung; above 100 µM with CAKI-1 renal. The TGI was 2.89 µM in the test with HL-60(TB) leukemia and above 100 µM in the test with SK-MEL-28 melanoma.
For `N#Cc1nc(/C=C/c2cccs2)oc1N`, the TGI in the test with HS 578T breast, in the test on UACC-62 melanoma, with SF-268 CNS, in the test with UACC-257 melanoma, in the test with SK-MEL-5 melanoma and with SNB-19 CNS was above 100 µM each time. Moreover, the TGI with M14 melanoma, with PC-3 prostate, with CAKI-1 renal, in the test on MDA-MB-435, with HL-60(TB) leukemia and with SK-MEL-28 melanoma was above 100 µM throughout.
Consider `CC1(C)CC(=O)c2c(nc3c(ccc4ccccc43)c2-c2ccc(NC(=O)CCCCCCCCC(=O)Nc3ccc(-c4c5c(nc6c4ccc4ccccc46)CC(C)(C)CC5=O)cc3)cc2)C1`, for which the TGI in the test with HS 578T breast, in the test with SF-268 CNS, in the test on UACC-257 melanoma, with SK-MEL-5 melanoma, in the test on SNB-19 CNS and with M14 melanoma was above 100 µM throughout. In addition, the TGI in the test on OVCAR-3 ovarian, in the test with NCI-H226 lung, in the test with PC-3 prostate, with CAKI-1 renal, with MDA-MB-435 and with HL-60(TB) leukemia was above 100 µM each time. The compound also showed a TGI in the test on SK-MEL-28 melanoma above 100 µM.
`Cc1ccc(C)n1-n1c(Cc2ccc(Cl)cc2)n[nH]c1=O`: the TGI with HS 578T breast, in the test with UACC-62 melanoma, with SF-268 CNS, in the test on UACC-257 melanoma, with SK-MEL-5 melanoma and with SNB-19 CNS was above 100 µM each time. Besides, the TGI in the test on M14 melanoma, in the test with OVCAR-3 ovarian, with NCI-H226 lung, in the test with MALME-3M melanoma, in the test on PC-3 prostate and in the test with CAKI-1 renal was above 100 µM in each case. Further, the TGI with MDA-MB-435 and with SK-MEL-28 melanoma was above 100 µM each time.
On to `O=C(c1ccccc1)c1ccc(N2C(=O)/C(=C/c3cccc([N+](=O)[O-])c3)N=C2c2ccccc2)c(N2C(=O)/C(=C/c3cccc([N+](=O)[O-])c3)N=C2c2ccccc2)c1`, for which the TGI is above 100 µM in the test on HS 578T breast; above 100 µM in the test on UACC-62 melanoma; above 100 µM in the test on SF-268 CNS; above 100 µM in the test on UACC-257 melanoma; 18.9 µM in the test on SK-MEL-5 melanoma; above 100 µM in the test with SNB-19 CNS. Besides, the TGI in the test with M14 melanoma was above 100 µM; in the test with OVCAR-3 ovarian, above 100 µM; in the test on PC-3 prostate it was above 100 µM; with CAKI-1 renal, above 100 µM; in the test on MDA-MB-435, 29.8 µM; in the test with HL-60(TB) leukemia it was 15.8 µM. The compound also returned a TGI in the test with SK-MEL-28 melanoma above 100 µM.

The record behind these values is PubChem BioAssay (NCI).
